Article PMC5431200, “Identification of Streptococcus cristatus peptides that repress expression of virulence genes in Porphyromonas gingivalis” (Scientific Reports, 2017)

What was measured:
kgp = settings: peptide 16 µM; P. gingivalis 33277 grown TSB; real-time PCR mRNA level relative to absence of peptide = 1 unit; means and SD of three independent experiments
Protocol: (§1) The IC50 for each gene was established using a Microsoft Excel program with add-in for curve fitting.
(§2) P. gingivalis were homogenized in Trizol Reagent (Invitrogen, Carlsbad, CA) and RNA was purified using an RNeasy mini spin column (Qiagen, Valencia, CA). RNA samples were digested on-column with RNase-free DNase, and total RNA was tested using an Agilent 2100 Bioanalyzer to ensure the quality of the samples. Amplification reactions consisted of a reverse transcription using a Bio-Rad iScript Reverse Transcription Supermix on a TC-3000 thermal cycler (Techne, Staffordshire, ST15 OSA, UK) and a real-time qRT-PCR analysis using a QuantiTect SYBR Green RT-PCR Kit (Qiagen) on an iCycler MyiQ^TM Real-Time PCR detection system (Bio-Rad Laboratories, Inc, Hercules, CA) according to the manufacturer’s instructions. P. gingivalis 16 S rRNA gene was used as a normalizing gene. […] The expression levels of the investigated genes for the test sample were determined relative to the untreated calibrator sample by using the comparative cycle threshold (ΔC T) method. ΔC T was calculated by subtracting the average C T value of the test sample from the average C T value of the calibrator sample, and the value used to calculate the ratio between the two by assuming 100% amplification efficiency.
(§3) Peptides were resuspended in nuclease/proteinase-free PBS, aliquoted, and stored at −20 °C. Inhibitory activity of peptides were determined as described[16] with slight modification. Peptides were mixed with 5 × 10^5 cells of P. gingivalis, spotted onto a TSB blood agar plate, and cultured for 60 h anaerobically. The expression levels of fimbrial and gingipain mRNA or proteins were measured using qRT-PCR or western blot analyses.

mfa1 = settings: peptide 16 µM; P. gingivalis 33277 grown TSB; real-time PCR mRNA level relative to absence of peptide = 1 unit; means and SD of three independent experiments
Protocol: as §1, §2, §3

rgpA = settings: peptide 16 µM; P. gingivalis 33277 grown TSB; real-time PCR mRNA level relative to absence of peptide = 1 unit; means and SD of three independent experiments
Protocol: as §1, §2, §3

pgn0128 = pgn0128 (immunoreactive 53 kDa antigen) expression in P. gingivalis with ArcA peptides, real-time qRT-PCR; assay type: cell-based, Porphyromonas gingivalis 33277; settings: peptide 16 µM; P. gingivalis 33277 grown TSB; real-time PCR mRNA level relative to absence of peptide = 1 unit; means and SD of three independent experiments
Protocol: as §2, §3

fimA = fimA expression in P. gingivalis with ArcA peptides, real-time qRT-PCR; assay type: cell-based, Porphyromonas gingivalis 33277; settings: peptide 16 µM; P. gingivalis 33277 grown TSB; real-time PCR mRNA level relative to absence of peptide = 1 unit; means and SD of three independent experiments
Protocol: as §1, §2, §3

rgpA/B = rgpA/B expression (catalytic regions of rgpA/B) in P. gingivalis with ArcA peptides, real-time qRT-PCR; assay type: cell-based, Porphyromonas gingivalis 33277; settings: peptide 16 µM; P. gingivalis 33277 grown TSB; real-time PCR mRNA level relative to absence of peptide = 1 unit; means and SD of three independent experiments
Protocol: as §1, §2, §3

[1] = system: fimA, mfa1, kgp, rgpA/B, rgpA; experiment: Virulence gene expression in P. gingivalis with ArcA peptides, stated for the gene set, qRT-PCR; assay type: cell-based, Porphyromonas gingivalis 33277; settings: peptide 16 µM (Table 1); at a lower efficiency than peptide4
Protocol: as §2, §3

Substance | Relative expression level kgp (kgp) | Relative expression level mfa1 (mfa1) | Relative expression level rgpA (rgpA) | Relative expression level pgn0128 (pgn0128) | Relative expression level fimA (fimA) | Relative expression level rgpA/B (rgpA/B) | Inhibitory activity on virulence gene expression (in words) [1]
E389LVRGRGGPRCMSMPF [Peptide P5] | 0.96 ± 0.12 | 0.83 ± 0.04 | 0.73 ± 0.06 | 0.91 ± 0.06 | 0.97 ± 0.05 | 0.72 ± 0.05 | some inhibitory activity
V208YNREEDTRIEGGDEL [Peptide P3] | 0.99 ± 0.12 | 0.82 ± 0.07 | 0.84 ± 0.06 | 0.91 ± 0.07 | 0.87 ± 0.10 | 0.98 ± 0.06 | some inhibitory activity
I97RGRETKK [Peptide P1] | 1.06 ± 0.12 | 0.85 ± 0.05 | 0.86 ± 0.07 | 0.96 ± 0.06 | 0.88 ± 0.08 | 0.89 ± 0.05 | some inhibitory activity
